pIC50: −log10 of the molar value. Active and inactive are the calls of the source.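 The calls were made as follows: active = IC50 below 10 µM for blocking the PP1 phosphatase acting on a fluorogenic substrate; inactive = IC50 of 10 µM or more.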
The compounds below were run against Serine/threonine-protein phosphatase PP1-alpha catalytic subunit (Homo sapiens) (UniProt P62136) (assay: dose-dependent PP1alpha phosphatase inhibition – biochemical, fluorescence, OMFP substrate, set 2, dose response (AID 652207)). Conditions: purified PP1alpha, OMFP dephosphorylation fluorescence.
Sequence of Serine/threonine-protein phosphatase PP1-alpha catalytic subunit (Homo sapiens) (P62136 whole entry, looked up): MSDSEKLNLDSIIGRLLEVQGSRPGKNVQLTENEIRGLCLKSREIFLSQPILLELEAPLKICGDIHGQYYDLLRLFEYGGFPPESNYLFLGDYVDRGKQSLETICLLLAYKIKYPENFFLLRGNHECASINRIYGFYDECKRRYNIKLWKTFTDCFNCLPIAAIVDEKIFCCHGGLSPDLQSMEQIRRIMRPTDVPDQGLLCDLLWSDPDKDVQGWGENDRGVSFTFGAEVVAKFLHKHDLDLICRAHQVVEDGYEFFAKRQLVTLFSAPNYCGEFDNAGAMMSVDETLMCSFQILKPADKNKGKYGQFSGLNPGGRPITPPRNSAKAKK

SMILES	pIC50	IC50
CN1CCN(C(c2cccs2)c2cc(Cl)c3cccnc3c2O)CC1 (stereo unspecified)	5.07	–
Oc1c(Cc2ccccn2)ccc2cccnc12	5.58	–
CN1CCN(Cc2cc(Cl)c3cccnc3c2O)CC1	–	inactive
CN1CCN(C(c2ccccn2)c2ccc3cccnc3c2O)CC1 (stereo unspecified)	5.94	–
Oc1c(C(c2ccccn2)N2CCOCC2)cc(Cl)c2cccnc12 (stereo unspecified)	5.88	–
CN1CCN(C(c2nccs2)c2cc(Cl)c3cccnc3c2O)CC1 (stereo unspecified)	5.79	–

— PubChem BioAssay AID652207 (The Scripps Research Institute Molecular Screening Center, 2013)
